In patent US6414154B1, “Tetraisoquinoline derivatives as modulators of dopamine D3 receptors” (SmithKline Beecham p.l.c., priority 1998, dated 2002):

molecular target: T1, human D3 dopamine receptors (Homo sapiens, UniProt P35462); experiment: displacement of [125I] iodosulpride binding to cloned human D3 dopamine receptors expressed in CHO cells; conditions: 0.1 nM [125I] iodosulpride, CHO cell membranes, 30 min at 37° C.; read-out: pKi at the D3 receptor (converted)
T1 construct: expressed in transfected cells; host or cells: CHO cells (crude cell membranes)
Protocol: The inhibition constants (Ki) of test compounds for displacement of [^125I] iodosulpride binding to human D3 dopamine receptors expressed in CHO cells were determined as follows. […] Cultures were grown as monolayers or in suspension in standard cell culture media. Cells were recovered by scraping (from monolayers) or by centrifugation (from suspension cultures), and were washed two or three times by suspension in phosphate buffered saline followed by collection by centrifugation. Cell pellets were stored frozen at −40° C. Crude cell membranes were prepared by homogenisation followed by high-speed centrifugation, and characterisation of cloned receptors achieved by radioligand binding.
Cell pellets were gently thawed at room temperature, and resuspended in about 20 volumes of ice-cold 50 mM Tris salts (pH 7.4@37° C.), 20 mM EDTA, 0.2 M sucrose. The suspension was homogenised using an Ultra-Turrax at full speed for 15 sec. The homogenate was centrifuged at 18,000 r.p.m for 20 min at 4° C. in a Sorvall RC5C centrifuge. The membrane pellet was resuspended in ice-cold 50 mM Tris salts (pH 7.4@37° C.), using an Ultra-Turrax, and recentrifuged at 18,000 r.p.m for 15 min at 4° C. in a Sorvall RC5C. The membranes were washed two more times with ice-cold 50 mM Tris salts (pH 7.4@37° C.). The final pellet was resuspended in 50 mM Tris salts (pH 7.4@37° C.), and the protein content determined using bovine serum albumin as a standard (Bradford, M. M. (1976) Anal. Biochem. 72, 248-254).
Crude cell membranes were incubated with 0.1 nM [^125I] iodosulpride (˜2000 Ci/mmol; Amersham, U. K.), and the test compound in a buffer containing 50 mM Tris salts (pH 7.4@37° C.), 120 mM NaCl, 5 mM KCl, 2 mM CaCl2, 1 mM MgCl2, 0.1% (w/v) bovine serum albumin, in a total volume of 1 ml for 30 min at 37° C. Following incubation, samples were filtered using a Brandel Cell Harvester, and washed three times with ice-cold 50 mM Tris salts (pH 7.4@37° C.), 120 mM NaCl, 5 mM KCl, 2 mM CaCl2, 1 mM MgCl2. The radioactivity on the filters was measured using a Cobra gamma counter (Canberra Packard). Non-specific binding was defined as the radioligand binding remaining after incubation in the presence of 100 μM iodosulpride. For competition curves, 14 concentrations (half-log dilutions) of competing cold drug were used. Competition curves were analysed simultaneously whenever possible using non-linear least-squares fitting procedures, capable of fitting one, two or three site models.

T1 sequence (P35462 whole entry): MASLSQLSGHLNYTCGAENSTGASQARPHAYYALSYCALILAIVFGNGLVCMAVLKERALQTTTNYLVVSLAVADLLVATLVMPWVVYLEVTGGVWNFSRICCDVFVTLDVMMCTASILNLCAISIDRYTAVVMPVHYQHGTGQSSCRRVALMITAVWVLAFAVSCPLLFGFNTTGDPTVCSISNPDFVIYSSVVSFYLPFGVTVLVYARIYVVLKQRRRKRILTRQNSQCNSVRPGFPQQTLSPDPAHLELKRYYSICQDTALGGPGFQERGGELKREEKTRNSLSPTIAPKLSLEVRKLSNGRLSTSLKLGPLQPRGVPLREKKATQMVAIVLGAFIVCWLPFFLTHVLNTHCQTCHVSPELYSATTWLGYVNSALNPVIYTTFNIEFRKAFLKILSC

Row | SMILES | Ki
1 | N#Cc1ccc2c(c1)CCN(CC[C@H]1CC[C@H](NC(=O)Cc3ccc4ccccc4c3)CC1)C2 [Example 2, trans-6-Cyano-2-(2-(1-(4-(2-naphthyl)acetamido)cyclohexyl)ethyl)-1,2,3,4-tetrahydroisoquinoline] | 3.16 to 12.6 nM
2 | N#Cc1ccc(CC(=O)N[C@H]2CC[C@H](CCN3CCc4cc(C#N)ccc4C3)CC2)cc1 [Example 7, trans-6-Cyano-2-(2-(1-(4-(4-cyanophenyl)acetamido)cyclohexyl)ethyl)-1,2,3,4-tetrahydroisoquinoline] | 3.16 to 12.6 nM
3 | N#Cc1ccc2c(c1)CCN(CC[C@H]1CC[C@H](NC(=O)CCc3ccccc3)CC1)C2 [Example 8, trans-6-Cyano-2-(2-(1-(4-(3-phenyl)propionamido)cyclohexyl)ethyl)-1,2,3,4-tetrahydroisoquinoline] | 3.16 to 12.6 nM
4 | N#Cc1ccc2c(c1)CCN(CC[C@H]1CC[C@H](NC(=O)Cc3ccc(-c4ccccc4)cc3)CC1)C2 [Example 9, trans-6-Cyano-2-(^2-(1-(4-(4-phenyl)phenylacetamido)cyclohexyl)-ethyl)-1,2,3,4-tetrahydroisoquinoline] | 3.16 to 12.6 nM
5 | N#Cc1ccc2c(c1)CCN(CC[C@H]1CC[C@H](NC(=O)Cc3cccs3)CC1)C2 [Example 10, trans-6-Cyano-2-(2-(1-(4-(2-thienyl)acetamido)cyclohexyl)ethyl)-1,2,3,4-tetrahydroisoquinoline] | 3.16 to 12.6 nM
6 | N#Cc1ccc2c(c1)CCN(CC[C@H]1CC[C@H](NC(=O)Cc3c[nH]c4ccccc34)CC1)C2 [Example 12, trans-6-Cyano-2-(2-(1-(4-(3-indolyl)acetamido)cyclohexyl)ethyl)-1,2,3,4-tetrahydroisoquinoline] | 3.16 to 12.6 nM
7 | N#Cc1ccc2c(c1)CCN(CC[C@H]1CC[C@H](NC(=O)Cc3ccccn3)CC1)C2 [Example 15, trans-6-Cyano-2-(2-(1-(4-(2-pyridyl)acetamido)cyclohexyl)ethyl)-1,2,3,4-tetrahydroisoquinoline] | 3.16 to 12.6 nM
8 | CC(C)(C)c1ccc(CC(=O)N[C@H]2CC[C@H](CCN3CCc4cc(C#N)ccc4C3)CC2)cc1 [Example 21, trans-6-Cyano-2-(2-(1-(4-(4-t-butyl)phenylacetamido)cyclohexyl)-ethyl)-1,2,3,4-tetrahydroisoquinoline] | 3.16 to 12.6 nM
9 | N#Cc1ccc2c(c1)CCN(CC[C@H]1CC[C@H](NC(=O)Cc3csc4ccccc34)CC1)C2 [Example 22, trans-6-Cyano-2-(2-(1-(4-(3-benzo[b]thienyl)acetarnido)cyclohexyl)-ethyl)-1,2,3,4-tetrahydroisoquinoline] | 3.16 to 12.6 nM
10 | N#Cc1ccc2c(c1)CCN(CC[C@H]1CC[C@H](NC(=O)COc3ccccc3)CC1)C2 [Example 23, trans-6-Cyano-2-(2-(1-(4-phenoxyacetamido)cyclohexyl)ethyl)-1,2,3,4-tetrahydroisoquinoline] | 3.16 to 12.6 nM
11 | N#Cc1ccc2c(c1)CCN(CC[C@H]1CC[C@H](NC(=O)CCCc3ccccc3)CC1)C2 [Example 24, trans-6-Cyano-2-(2-(1-(4-(4-phenyl)butyramido)cyclohexyl)ethyl)-1,2,3,4-tetrahydroisoquinoline] | 3.16 to 12.6 nM
12 | N#Cc1ccc2c(c1)CCN(CC[C@H]1CC[C@H](NC(=O)CCc3ccc(F)cc3)CC1)C2 [Example 25, trans-6-Cyano-2-(2-(1-(4-(3-(4-fluoro)phenyl)propionamido)-cyclohexyl)ethyl)-1,2,3,4-tetrahydroisoquinoline] | 3.16 to 12.6 nM
13 | N#Cc1ccc2c(c1)CCN(CC[C@H]1CC[C@H](NC(=O)Cc3ccnc4ccccc34)CC1)C2 [Example 26, trans-6-Cyano-2-(2-(1-(4-(4-quinolyl)acetamido)-cyclohexyl)ethyl)-1,2,3,4-tetrahydroisoquinoline] | 3.16 to 12.6 nM
14 | N#Cc1ccc2c(c1)CCN(CC[C@H]1CC[C@H](NC(=O)Cc3cc4ccccc4s3)CC1)C2 [Example 29, trans-6-Cyano-2-(2-(1-(4-(2-benzothiophenyl)acetamido)-cyclohexyl)ethyl)-1,2,3,4-tetrahydroisoquinoline] | 3.16 to 12.6 nM

Other lines, results leading:

Row | Ki | SMILES
15 | 3.16 to 12.6 nM | N#Cc1ccc2c(c1)CCN(CC[C@H]1CC[C@H](NC(=O)Cc3ccccc3)CC1)C2 [Example 1, trans-6-Cyano-2-(2-(1-(4-phenylacetamido)cyclohexyl)ethyl)-1,2,3,4-tetrahydroisoquinoline]
16 | 3.16 to 12.6 nM | N#Cc1ccc2c(c1)CCN(CC[C@H]1CC[C@H](NC(=O)Cc3ccccc3F)CC1)C2 [Example 3, trans-6-Cyano-2-(2-(1-(4-(2-fluorophenyl)acetamido)cyclohexyl)ethyl)-1,2,3,4-tetrahydroisoquinoline]
17 | 3.16 to 12.6 nM | N#Cc1ccc2c(c1)CCN(CC[C@H]1CC[C@H](NC(=O)Cc3cccc(F)c3)CC1)C2 [Example 4, trans-6-Cyano-2-(2-(1-(4-(3-fluorophenyl)acetamido)cyclohexyl)ethyl)-1,2,3,4-tetrahydroisoquinoline]
18 | 3.16 to 12.6 nM | N#Cc1cccc(CC(=O)N[C@H]2CC[C@H](CCN3CCc4cc(C#N)ccc4C3)CC2)c1 [Example 6, trans-6-Cyano-2-(2-(1-(4-(3-cyanophenyl)acetamido)cyclohexyl)ethyl)-1,2,3,4-tetrahydroisoquinoline]
19 | 3.16 to 12.6 nM | N#Cc1ccc2c(c1)CCN(CC[C@H]1CC[C@H](NC(=O)Cc3ccsc3)CC1)C2 [Example 11, trans-6-Cyano-2-(2-(1-(4-(3-thienyl)acetamido)cyclohexyl)ethyl)-1,2,3,4-tetrahydroisoquinoline]
20 | 3.16 to 12.6 nM | N#Cc1ccc2c(c1)CCN(CC[C@H]1CC[C@H](NC(=O)Cc3cc(F)ccc3F)CC1)C2 [Example 13, trans-6-Cyano-2-(2-(1-(4-(2,5-difluoro)phenylacetamido)cyclohexyl)-ethyl)-1,2,3,4-tetrahydroisoquinoline]
21 | 3.16 to 12.6 nM | N#Cc1ccc2c(c1)CCN(CC[C@H]1CC[C@H](NC(=O)Cc3ccc(F)c(F)c3)CC1)C2 [Example 14, trans-6-Cyano-2-(2-(1-(4-(3,4-difluoro)phenylacetamido)cyclohexyl)-ethyl)-1,2,3,4-tetrahydroisoquinoline]
22 | 3.16 to 12.6 nM | N#Cc1ccc2c(c1)CCN(CC[C@H]1CC[C@H](NC(=O)Cc3ccc(Br)cc3)CC1)C2 [Example 16, trans-6-Cyano-2-(2-(1-(4-(4-bromo)phenylacetamido)cyclohexyl)-ethyl)-1,2,3,4-tetrahydroisoquinoline]
23 | 3.16 to 12.6 nM | N#Cc1ccc2c(c1)CCN(CC[C@H]1CC[C@H](NC(=O)Cc3ccc(I)cc3)CC1)C2 [Example 17, trans-6-Cyano-2-(2-(1-(4-(4-iodo)phenylacetamido)cyclohexyl)ethyl)-1,2,3,4-tetrahydroisoquinoline]
24 | 3.16 to 12.6 nM | N#Cc1ccc2c(c1)CCN(CC[C@H]1CC[C@H](NC(=O)Cc3cccc(Br)c3)CC1)C2 [Example 18, trans-6-Cyano-2-(2-(1-(4-(3-bromo)phenylacetamido)cyclohexyl)-ethyl)-1,2,3,4-tetrahydroisoquinoline]
25 | 3.16 to 12.6 nM | N#Cc1ccc2c(c1)CCN(CC[C@H]1CC[C@H](NC(=O)Cc3ccc(F)cc3F)CC1)C2 [Example 19, trans-6-Cyano-2-(2-(1-(4-(2,4-difluoro)phenylacetamido)cyclohexyl)-ethyl)-1,2,3,4-tetrahydroisoquinoline]
26 | 3.16 to 12.6 nM | N#Cc1ccc2c(c1)CCN(CC[C@H]1CC[C@H](NC(=O)Cc3cccc(C(F)(F)F)c3)CC1)C2 [Example 20, trans-6-Cyano-2-(2-(1-(4-(3-trifluoromethyl)phenylacetamido)-cyclohexyl)ethyl)-1,2,3,4-tetrahydroisoquinoline]
27 | 3.16 to 12.6 nM | N#Cc1ccc2c(c1)CCN(CC[C@H]1CC[C@H](NC(=O)Cc3ccc(C(F)(F)F)cc3)CC1)C2 [Example 27, trans-6-Cyano-2-(2-(1-(4-(4-trifluoromethyl)phenylacetamido)-cyclohexyl)ethyl)-1,2,3,4-tetrahydroisoquinoline]
28 | 3.16 to 12.6 nM | N#Cc1ccc2c(c1)CCN(CC[C@H]1CC[C@H](NC(=O)Cc3cc(F)cc(F)c3)CC1)C2 [Example 28, trans-6-Cyano-2-(2-(1-(4-(3,5-difluoro)phenylacetamido)-cyclohexyl)ethyl)-1,2,3,4-tetrahydroisoquinoline]
29 | 3.16 to 12.6 nM | N#Cc1ccc2c(c1)CCN(CC[C@H]1CC[C@H](NC(=O)Cc3ccco3)CC1)C2 [Example 30, trans-6-Cyano-2-(2-(1-(4-(2-furanyl)acetamido)-cyclohexyl)ethyl)-1,2,3,4-tetrahydroisoquinoline]
